Data from publication PMC4139342, “Pharmacokinetics-Pharmacodynamics Analysis of Bicyclic 4-Nitroimidazole Analogs in a Murine Model of Tuberculosis” (PLoS ONE, 2014).
Values after ≈ are worked out from the molar mass of the structure shown. Where two headings read alike, the source gives them in different places.

What was measured:
[1] = female, CD-1, mouse, in vivo, po
Mtb H37Rv = test: In vivo mouse efficacy, established murine TB model; design: species or system Balb/c mice; conditions: for Efficacy compared with PA-824, in words: significance at P<0.05; for log reduction at 100 mg/kg / log reduction at 25 mg/kg: Mycobacterium tuberculosis, H37RV, po, 672 h, read-out: Mean log lung CFU reduction ± SEM compared to untreated controls; for Dose dependence of efficacy, in words: 25 versus 100 mg/kg oral daily for 4 weeks
Experimental: In vivo mouse efficacy studies were determined after intranasal infection of Balb/c mice with 10^3 cfu Mtb H37Rv. Treatment was initiated 4 weeks after infection. Compounds were orally administered in CM-2 formulation for 4 weeks daily. Bacterial loads were determined at 2 and 4 weeks post treatment. Statistical analysis was done by a one-way analysis of variance, followed by a multiple comparison analysis of variance by a one-way Tukey test (GraphPad Prism, version 5.02, San Diago, California USA, www.graphpad.com). Differences were considered statistically significant at the 95% level of confidence.

in vitro [2] = conditions: human, Caco-2
[3] = Cytotoxicity against THP1 macrophage cell lines; type: cell-based; conditions: human
[4] = female, CD-1, mouse, in vivo, iv, 5 mg/kg
in vivo [5] = conditions: female, CD-1, mouse, iv; for clearance: i.v. CL
[6] = In vivo plasma PK after oral dosing in CM-2 formulation; conditions: for half-life: female, CD-1, mouse, plasma, po
in vitro [7] = conditions: mouse, plasma
[8] = In vivo lung PK after oral dosing; conditions: female, CD-1, mouse
in vivo [9] = conditions: female, CD-1, mouse, po
physchem [10] = conditions: pH 6.8, aqueous buffer, thermodynamic from solid
physchem [11] = test: physchem
[12] = In vivo plasma PK after intravenous dosing; conditions: mice; for half-life: female, CD-1, mouse, plasma, iv, T1/2 (i.v)
in vivo [13] = conditions: female, CD-1, mouse, po; remark: listed apart in the source
[14] = system: M. tuberculosis (Mtb) (H37Rv, ATCC 27294); test: microbe, parasite or virus in culture; type: cell-based; conditions: Mycobacterium tuberculosis
[15] = system: CaCo-2 colon carcinoma cell lines
[16] = design: method as in PMID 19528280; conditions: healthy subjects, oral daily doses for 7 days; cited from earlier work
Mtb = conditions: murine model, cited from earlier work
[17] = female, CD-1, mouse, in vivo, po, 25 mg/kg
[18] = design: method as in PMID 16870750; conditions: mice dosed for 2 months; cited from earlier work
[19] = 100 mg/kg oral daily for 4 weeks, 5 animals
[20] = 100 mg/kg oral daily for 4 weeks
[21] = 25 mg/kg, Lung to Plasma ratio AUC24
[22] = 25 mg/kg, Lung to Plasma ratio Cmax
[23] = 25 mg/kg oral daily for 4 weeks, 5 animals
[24] = 25 mg/kg oral daily for 4 weeks, mean value from three independent experiments (n = 15)
[25] = mouse plasma, single oral dose 25 mg/kg, CM-2

With O=[N+]([O-])c1cn2c(n1)OC1(CC1)C(OCc1ccc(OC(F)(F)F)cc1)C2 (centres unmarked) [NI-302] the “Lung AUC24” value ([1]; 25 mg/kg) was 100.3 µg·h/g, the “Lung Cmax” value ([1]; 25 mg/kg) was 9.7 µg/g and the “Mean log lung CFU ± SEM” value (Mtb H37Rv; [19]) was 4.45±0.22 log CFU. The “Efficacy compared with PA-824, in words” value (Mtb H37Rv; [20]) was “comparable efficacy to PA-824”, the log reduction at 100 mg/kg (Mtb H37Rv; [19]) was 2.17 ± 0.22 and the Papp A→B (in vitro [2]) was 45.1 ×10⁻⁶ cm/s. The Papp B→A (in vitro [2]) was 18.7 ×10⁻⁶ cm/s, the efflux ratio (in vitro [2]) was 0.4 and the CC50 [3] was > 10 µg/mL. The “i.v. CL” value [4] was 4.3 mL/min/kg, the Vd (in vivo [5]; 5 mg/kg) was 1.2 L/kg and the clearance (in vivo [5]; 5 mg/kg) was 5 mL/min/kg. The half-life ([6]; 25 mg/kg) was 4.1 h, the fraction unbound (in vitro [7]) was 0.043 and the half-life ([8]; 25 mg/kg) was 4.1 h. The Kp (in vivo [9]; [21]) was 0.7, the Kp (in vivo [9]; [22]) was 0.8 and the solubility (physchem [10]) was 26 µg/mL (≈ 67.5 µM). It also gave a logP (physchem [11]) of 3.2, a half-life ([12]; 5 mg/kg, i.v. dosing at 5 mg/kg) of 3.7 h and an AUC (in vivo [13]; 25 mg/kg) of 144000 ng·h/mL. The Cmax (in vivo [13]; 25 mg/kg) was 12900 ng/mL, the bioavailability (in vivo [13]; 25 mg/kg) was 100% and the “PAMPA %FA” value was 99%. For the same compound, the “PAMPA Log Pe” value was “–3.6 cm/sec” and the MIC99 [14] was 0.03 µg/mL (≈ 0.0779 µM).

With O=C(CO[C@@H]1COc2nc([N+](=O)[O-])cn2C1)N1CCN(c2ccc(C(F)(F)F)cn2)CC1 [NI-644] the “Lung AUC24” value ([1]; 50 mg/kg) was 38.1 µg·h/g, the “Lung Cmax” value ([1]; 50 mg/kg) was 7.5 µg/g and the “Mean log lung CFU ± SEM” value (Mtb H37Rv; [23]) was 6.18±0.03 log CFU. For the same compound, the “Efficacy compared with PA-824, in words” value (Mtb H37Rv; 25 mg/kg oral daily for 4 weeks) was “significantly (P<0.05) less efficacious than PA-824”, the “Mean log lung CFU ± SEM” value (Mtb H37Rv; [19]) was 6.09±0.07 log CFU and the “Efficacy compared with PA-824, in words” value (Mtb H37Rv; [20]) was “significantly (P<0.05) less efficacious than PA-824”. For the same compound, the “Dose dependence of efficacy, in words” value (Mtb H37Rv) was “no dose-dependent increase in bactericidal activity”, the log reduction at 25 mg/kg (Mtb H37Rv; [23]) was 0.48 to 0.89 and the log reduction at 100 mg/kg (Mtb H37Rv; [19]) was 0.57 ± 0.07. It also gave a Papp A→B (in vitro [2]) of 2.8 ×10⁻⁶ cm/s, a Papp B→A (in vitro [2]) of 13.7 ×10⁻⁶ cm/s and an efflux ratio (in vitro [2]) of 4.8. The CC50 [3] was > 10 µg/mL, the Vd (in vivo [5]; 10 mg/kg) was 0.7 L/kg and the clearance (in vivo [5]; 10 mg/kg) was 9.5 mL/min/kg. For the same compound, the half-life ([6]; 50 mg/kg) was 3.6 h, the “Permeability in the Caco-2 assay, in words” value [15] was “moderate permeability” and the fraction unbound (in vitro [7]) was 0.1. It also gave a half-life ([8]; 50 mg/kg) of 2.9 h, a Tmax (in vivo [9]; 50 mg/kg) of 1 h and a Kp (in vivo [9]; 50 mg/kg, Lung to Plasma ratio AUC24) of 0.4. The Kp (in vivo [9]; 50 mg/kg, Lung to Plasma ratio Cmax) was 0.5, the solubility (physchem [10]) was 14 µg/mL (≈ 30.7 µM) and the logP (physchem [11]) was 2.6. For the same compound, the half-life ([12]; 10 mg/kg, i.v. dosing at 10 mg/kg) was < 1 h, the “T1/2 (i.v)” value ([12]; i.v. dosing at 10 mg/kg, 10 mg/kg) was 0.9 h and the AUC (in vivo [13]; 50 mg/kg) was 89500 ng·h/mL. It also gave a Cmax (in vivo [13]; 50 mg/kg) of 16200 ng/mL, a Tmax (in vivo [13]; 50 mg/kg) of 1 h and a bioavailability (in vivo [13]; 50 mg/kg) of 100%. The “PAMPA %FA” value was 83%, the “PAMPA Log Pe” value was “–4.9 cm/sec” and the MIC99 [14] was 0.09 µg/mL (≈ 0.197 µM).

In the case of O=[N+]([O-])c1cn2c(n1)OC[C@@H](OCc1ccc(OC(F)(F)F)cc1)C2 [PA-824, (6S)-2-nitro-6-{[4-(trifluoromethoxy)benzyl]oxy}-6,7-dihydro-5H-imidazo[2,1-b][1, 3]oxazine, reference compound], the “Lung AUC24” value ([1]; 25 mg/kg) is listed as 139.9 µg·h/g, the “Lung Cmax” value ([1]; 25 mg/kg) is listed as 17.8 µg/g and the Tolerability [16] is listed as “well tolerated”. The “Mean log lung CFU reduction ± SEM compared to untreated controls” value (Mtb H37Rv; [24]) was 1.48 ± 0.09 log CFU, the “Dose dependence of efficacy, in words” value (Mtb H37Rv) was “dose dependent increase in efficacy” and the log reduction at 25 mg/kg (Mtb H37Rv; [23]) was 1.23 to 1.56. It also gave a log reduction at 25 mg/kg (Mtb H37Rv; [24]) of 1.48 ± 0.09, a log reduction at 100 mg/kg (Mtb H37Rv; [19]) of 1.95 ± 0.13 and a log reduction at 100 mg/kg (Mtb H37Rv; 100 mg/kg oral daily for 4 weeks, mean value from three independent experiments (n = 15)) of 2.3 ± 0.08. It also gave a Papp A→B (in vitro [2]) of 27.6 ×10⁻⁶ cm/s, a Papp B→A (in vitro [2]) of 20.4 ×10⁻⁶ cm/s and an efflux ratio (in vitro [2]) of 0.8. The CC50 ([3]; THP1 macrophage cell line, THP1 macrophage cell lines, read-out: Cytotoxicity CC50) was > 10 µg/mL, the “F, oral bioavailability” value ([6]; mice, p.o. 25 mg/kg versus i.v. 5 mg/kg (PA-824: i.v. 10 mg/kg)) was 100% and the “T1/2 (p.o.)” value [6, 25] was 2.7. For the same compound, the “p.o. Tmax” value [6, 25] was 2 h, the “p.o. Cmax” value ([6]; mouse plasma, total concentration, single oral dose 25 mg/kg, CM-2) was 6000 ng/mL and the “fT>MIC in plasma required” value (Mtb; for 1-log10 kill) was 48%. The “fT>MIC in plasma required” value (Mtb; for 1.59 log10 kill) was 77%, the “fT>MIC in plasma required” value (Mtb; for bacteriostatic effect) was 22% and the fraction unbound (in vitro [7]) was 0.1. It also gave a half-life ([8]; 25 mg/kg) of 4.8 h, a Tmax (in vivo [9]; 25 mg/kg) of 0.3 h and a Kp (in vivo [9]; [21]) of 2.7. For the same compound, the Kp (in vivo [9]; [22]) was 3, the “Plasma free fCmax” value [17] was 0.6 µg/mL and the solubility (physchem [10]) was 13 µg/mL (≈ 36.2 µM). For the same compound, the logP (physchem [11]) was 2.75, the Plasma accumulation [18] was “absence of plasma accumulation” and the “T1/2 (i.v)” value ([12]; i.v. dosing at 10 mg/kg) was 1.6 h. The “i.v. CL” value ([12]; i.v. dosing at 10 mg/kg) was 12.1 mL/min/kg, the “i.v. Vss” value ([12]; i.v. dosing at 10 mg/kg) was 1.6 L/kg and the AUC (in vivo [13]; 25 mg/kg) was 50900 ng·h/mL. The “PAMPA Log Pe” value (PAMPA permeability; effective permeability) was “–4.2 cm/sec”, the “PAMPA %FA” value (PAMPA permeability; fraction absorbed) was 99% and the MIC99 [14] was 0.3 µg/mL (≈ 0.835 µM).
